# According to PubChem BioAssay (NCI):
#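 Following 48 hours of exposure in 96-well plates, responses at five concentrations were used to interpolate endpoints linearly. The concentration for full growth arrest is given as TGI.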
# Legend:
# Assay in all cases: NCI tumour cell line growth inhibition, 48 h
# [1] = test system: OVCAR-5 ovarian
# [2] = test system: ACHN renal
# [3] = test system: SK-MEL-2 melanoma
# [4] = test system: NCI/ADR-RES ovarian
# [5] = test system: COLO 205 colon
# [6] = test system: RPMI-8226 leukemia
# [7] = test system: MALME-3M melanoma
# [8] = test system: SF-295 CNS
# [9] = test system: MDA-MB-435
# [10] = test system: LOX IMVI melanoma
# [11] = test system: SF-539 CNS
# [12] = test system: UACC-62 melanoma
# [13] = test system: HCC-2998 colon
# [14] = test system: HS 578T breast
# [15] = test system: HCT-116 colon
# [16] = test system: SNB-75 CNS
# [17] = test system: NCI-H522 lung
# [18] = test system: HOP-62 NSCLC
# [19] = test system: A549 NSCLC
# [20] = test system: PC-3 prostate
# [21] = test system: KM12 colon
# [22] = test system: MDA-N
# [23] = test system: TK-10 renal
# [24] = test system: HOP-92 NSCLC
# [25] = test system: CAKI-1 renal
# [26] = test system: UO-31 renal
# [27] = test system: HL-60(TB) leukemia
# [28] = test system: EKVX NSCLC
# [29] = test system: SK-MEL-5 melanoma
# [30] = test system: K-562 leukemia
# [31] = test system: 786-0 renal
# [32] = test system: HCT-15 colon
# [33] = test system: A498 renal
# [34] = test system: NCI-H460 lung
# [35] = test system: MOLT-4 leukemia
# [36] = test system: SF-268 CNS
# [37] = test system: T-47D breast
# [38] = test system: M14 melanoma
# [39] = test system: CCRF-CEM leukemia
# [40] = test system: BT-549 breast
# [41] = test system: U251 CNS
# [42] = test system: OVCAR-8 ovarian
# [43] = test system: SK-OV-3 ovarian
# [44] = test system: SW-620 colon
# [45] = test system: OVCAR-3 ovarian
# [46] = test system: SN12C renal
# [47] = test system: IGROV1 ovarian
# [48] = test system: MDA-MB-231 breast
# [49] = test system: SK-MEL-28 melanoma
# [50] = test system: SR leukemia
# [51] = test system: OVCAR-4 ovarian
# [52] = test system: UACC-257 melanoma
# [53] = test system: HT29 colon
# [54] = test system: NCI-H226 lung
# [55] = test system: NCI-H23 lung
# [56] = test system: MCF7 breast
# [57] = test system: SNB-19 CNS
# [58] = test system: DU-145 prostate
# [59] = test system: RXF 393 renal
smiles,measurement,setting,value
COC(=O)C1CCC(=O)N1C(c1ccc(OC)cc1)c1ccc2c(c1)OCO2 (centres undefined),TGI,[1],> 100 µM
same,TGI,[2],> 100 µM
same,TGI,[3],> 100 µM
same,TGI,[4],> 100 µM
same,TGI,[5],> 100 µM
same,TGI,[6],> 100 µM
same,TGI,[7],> 100 µM
same,TGI,[8],48 µM
same,TGI,[9],28.7 µM
same,TGI,[10],> 100 µM
same,TGI,[11],98.6 µM
same,TGI,[12],> 100 µM
same,TGI,[13],> 100 µM
same,TGI,[14],> 100 µM
same,TGI,[15],> 100 µM
same,TGI,[16],78.9 µM
same,TGI,[17],> 100 µM
same,TGI,[18],> 100 µM
same,TGI,[19],> 100 µM
same,TGI,[20],> 100 µM
same,TGI,[21],> 100 µM
same,TGI,[22],27.3 µM
same,TGI,[23],> 100 µM
same,TGI,[24],> 100 µM
same,TGI,[25],> 100 µM
same,TGI,[26],> 100 µM
same,TGI,[27],91.2 µM
same,TGI,[28],> 100 µM
same,TGI,[29],81.7 µM
same,TGI,[30],> 100 µM
same,TGI,[31],> 100 µM
same,TGI,[32],> 100 µM
same,TGI,[33],> 100 µM
same,TGI,[34],> 100 µM
same,TGI,[35],> 100 µM
same,TGI,[36],> 100 µM
same,TGI,[37],> 100 µM
same,TGI,[38],> 100 µM
same,TGI,[39],> 100 µM
same,TGI,[40],> 100 µM
same,TGI,[41],> 100 µM
same,TGI,[42],> 100 µM
same,TGI,[43],> 100 µM
same,TGI,[44],> 100 µM
same,TGI,[45],> 100 µM
same,TGI,[46],> 100 µM
same,TGI,[47],> 100 µM
same,TGI,[48],> 100 µM
same,TGI,[49],> 100 µM
same,TGI,[50],> 100 µM
same,TGI,[51],> 100 µM
same,TGI,[52],> 100 µM
same,TGI,[53],> 100 µM
same,TGI,[54],> 100 µM
same,TGI,[55],> 100 µM
same,TGI,[56],> 100 µM
same,TGI,[57],> 100 µM
same,TGI,[58],> 100 µM
Cc1ccccc1S(=O)(=O)OC1NS(=O)(=O)c2ccccc21 (centres undefined),TGI,[1],> 100 µM
same,TGI,[2],> 100 µM
same,TGI,[3],> 100 µM
same,TGI,[4],> 100 µM
same,TGI,[5],> 100 µM
same,TGI,[6],> 100 µM
same,TGI,[7],> 100 µM
same,TGI,[8],> 100 µM
same,TGI,[9],> 100 µM
same,TGI,[10],> 100 µM
same,TGI,[11],> 100 µM
same,TGI,[12],> 100 µM
same,TGI,[13],> 100 µM
same,TGI,[14],> 100 µM
same,TGI,[15],> 100 µM
same,TGI,[16],> 100 µM
same,TGI,[17],> 100 µM
same,TGI,[18],> 100 µM
same,TGI,[59],> 100 µM
same,TGI,[19],> 100 µM
same,TGI,[20],> 100 µM
same,TGI,[21],> 100 µM
same,TGI,[22],> 100 µM
same,TGI,[23],> 100 µM
same,TGI,[24],> 100 µM
same,TGI,[25],> 100 µM
same,TGI,[26],> 100 µM
same,TGI,[28],> 100 µM
same,TGI,[29],> 100 µM
same,TGI,[30],> 100 µM
same,TGI,[31],> 100 µM
same,TGI,[32],> 100 µM
same,TGI,[33],> 100 µM
same,TGI,[34],> 100 µM
same,TGI,[35],> 100 µM
same,TGI,[36],> 100 µM
same,TGI,[37],> 100 µM
same,TGI,[38],> 100 µM
same,TGI,[40],> 100 µM
same,TGI,[41],> 100 µM
same,TGI,[42],> 100 µM
same,TGI,[43],> 100 µM
same,TGI,[44],> 100 µM
same,TGI,[45],> 100 µM
same,TGI,[46],> 100 µM
same,TGI,[47],> 100 µM
same,TGI,[48],> 100 µM
same,TGI,[49],> 100 µM
same,TGI,[50],> 100 µM
same,TGI,[51],> 100 µM
same,TGI,[52],> 100 µM
same,TGI,[53],> 100 µM
same,TGI,[55],> 100 µM
same,TGI,[56],> 100 µM
same,TGI,[57],> 100 µM
same,TGI,[58],> 100 µM
